From US20260285850A1, “SUBSTITUTED OXAZOLIDINONES AND IMIDAZOLINONES AS HERBICIDES” (FMC CORPORATION, priority 2023, published 2026)

Tests used:
Type in all cases: in vivo
[1] = test system: oat, wild (wild oat, Avena fatua); assay: Test A preemergence soil spray, visual injury rating 0-100; conditions: 10 days
In short: (§1)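 Rating: visual, day 10, untreated plants as reference, 0 no effect to 100 full control. Plants were in loam-sand and were treated either preemergence via directed soil spray or postemergence at the one- to two-leaf stage.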

[2] = test system: blackgrass (Alopecurus myosuroides); assay: as above; conditions: 10 days
In short: as §1

[3] = test system: wheat (Triticum aestivum); assay: as above; conditions: 10 days
In short: as §1

corn (Zea mays) [4] = assay: as above; conditions: 10 days
In short: as §1

kochia (Bassia scoparia) [5] = assay: as above; conditions: 10 days
In short: as §1

soybean (Glycine max) [6] = assay: as above; conditions: 10 days
In short: as §1

[7] = test system: barnyardgrass (Echinochloa crus-galli); assay: as above; conditions: 10 days
In short: as §1

[8] = test system: palmer (palmer amaranth, palmer pigweed, Amaranthus palmeri); assay: as above; conditions: 10 days
In short: as §1

[9] = test system: ryegrass, Italian (italian ryegrass, Lolium multiflorum); assay: as above; conditions: 10 days
In short: as §1

[10] = test system: green foxtail (Setaria viridis); assay: as above; conditions: 10 days
In short: as §1

[11] = test system: ragweed (common ragweed, Ambrosia artemisiifolia); assay: as above; conditions: 10 days
In short: as §1

[12] = test system: sedge, umbrella (small-flower umbrella sedge, Cyperus difformis); assay: Test B flooded paddy test, visual plant response rating 0-100; conditions: 250 g ai/ha, Flood, applied to paddy water, evaluated after 13 days
In short: (§2)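 Plants were grown to the 2-leaf stage, then pots were flooded to 3 cm above the soil and test compounds were applied directly into the paddy water. Water depth was held there throughout; after 13 days in a greenhouse, injury was scored visually against untreated controls.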

[13] = test system: ducksalad (Heteranthera limosa); assay: as above; conditions: 250 g ai/ha, Flood, applied to paddy water, evaluated after 13 days
In short: as §2

[14] = test system: barnyardgrass (Echinochloa crusgalli); assay: as above; conditions: 250 g ai/ha, Flood, applied to paddy water, evaluated after 13 days
In short: as §2

rice (Oryza sativa) = assay: as above; conditions: 250 g ai/ha, Flood, applied to paddy water, evaluated after 13 days
In short: as §2

[15] = test system: oat, wild (wild oat, Avena fatua); assay: Test A postemergence application, visual injury rating 0-100
In short: as §1

[16] = test system: blackgrass (Alopecurus myosuroides); assay: as above
In short: as §1

[17] = test system: wheat (Triticum aestivum); assay: as above
In short: as §1

corn (Zea mays) [18] = assay: as above
In short: as §1

kochia (Bassia scoparia) [19] = assay: as above
In short: as §1

soybean (Glycine max) [20] = assay: as above
In short: as §1

[21] = test system: horseweed (Erigeron canadensis); assay: as above
In short: as §1

[22] = test system: barnyardgrass (Echinochloa crus-galli); assay: as above
In short: as §1

[23] = test system: palmer (palmer amaranth, palmer pigweed, Amaranthus palmeri); assay: as above
In short: as §1

[24] = test system: galium (catchweed bedstraw, Galium aparine); assay: as above; conditions: Postemergence, 16 g ai/ha, greenhouse 10 days; 0 no effect, 100 complete control
In short: as §1

[25] = test system: ryegrass, Italian (italian ryegrass, Lolium multiflorum); assay: as above
In short: as §1

[26] = test system: green foxtail (Setaria viridis); assay: as above
In short: as §1

[27] = test system: ragweed (common ragweed, Ambrosia artemisiifolia); assay: as above
In short: as §1

[28] = 62 g ai/ha, 0 = no effect, 100 = complete control
[29] = 62 g ai/ha, postemergence, 10 days, 0 = no effect, 100 = complete control
[30] = Postemergence, 16 g ai/ha, greenhouse 10 days, 0 no effect, 100 complete control

CC1(C(=O)NC2CC=C(C(=O)OCC(F)F)C2)CN(c2cc(Cl)cc(Cl)c2)C(=O)O1 (stereo not drawn) [Compound 153]
0: Oat, Wild plant response rating ([1]; 16 g ai/ha, 0 to 100 scale) | Oat, Wild plant response rating (0-100) [1, 28] | Blackgrass plant response rating ([2]; 16 g ai/ha, 0 to 100 scale) | Blackgrass plant response rating (0-100) [2, 28] | Wheat plant response rating ([3]; 16 g ai/ha, 0 to 100 scale) | Wheat plant response rating (0-100) [3, 28] | Corn plant response rating (corn (Zea mays) [4]; 16 g ai/ha, 0 to 100 scale) | Corn plant response rating (0-100) (corn (Zea mays) [4]; [28]) | Kochia plant response rating (kochia (Bassia scoparia) [5]; 16 g ai/ha, 0 to 100 scale) | Kochia plant response rating (0-100) (kochia (Bassia scoparia) [5]; [28]) | Soybean plant response rating (soybean (Glycine max) [6]; 16 g ai/ha, 0 to 100 scale) | Barnyardgrass plant response rating ([7]; 16 g ai/ha, 0 to 100 scale) | Pigweed, Palmer plant response rating ([8]; 16 g ai/ha, 0 to 100 scale) | Pigweed, Palmer plant response rating (0-100) [8, 28] | Ryegrass, Italian plant response rating ([9]; 16 g ai/ha, 0 to 100 scale) | Ryegrass, Italian plant response rating (0-100) [9, 28] | Foxtail, Green plant response rating ([10]; 16 g ai/ha, 0 to 100 scale) | Foxtail, Green plant response rating (0-100) [10, 28] | Ragweed plant response rating ([11]; 16 g ai/ha, 0 to 100 scale) | Ragweed plant response rating (0-100) [11, 28] | Plant response rating, Sedge, Umbrella (0 to 100 scale, 0 is no effect and 100 is complete control) [12] | Plant response rating, Ducksalad (0 to 100 scale, 0 is no effect and 100 is complete control) [13] | Plant response rating, Barnyardgrass (0 to 100 scale, 0 is no effect and 100 is complete control) [14] | Plant response rating, Rice (0 to 100 scale, 0 is no effect and 100 is complete control) (rice (Oryza sativa)) | Oat, Wild plant response rating (0-100) [15, 29] | Oat, Wild plant response rating (0 to 100 scale) [15, 30] | Wheat plant response rating (0-100) [17, 29] | Wheat plant response rating (0 to 100 scale) [17, 30] | Corn plant response rating (0-100) (corn (Zea mays) [18]; [29]) | Corn plant response rating (0 to 100 scale) (corn (Zea mays) [18]; [30]) | Kochia plant response rating (0-100) (kochia (Bassia scoparia) [19]; [29]) | Kochia plant response rating (0 to 100 scale) (kochia (Bassia scoparia) [19]; [30]) | Soybean plant response rating (0-100) (soybean (Glycine max) [20]; [29]) | Soybean plant response rating (0 to 100 scale) (soybean (Glycine max) [20]; [30]) | Horseweed plant response rating (0-100) [21, 29] | Barnyardgrass plant response rating (0-100) [22, 29] | Barnyardgrass plant response rating (0 to 100 scale) [22, 30] | Pigweed, Palmer plant response rating (0-100) [23, 29] | Pigweed, Palmer plant response rating (0 to 100 scale) [23, 30] | Galium plant response rating (0 to 100 scale) [24] | Ryegrass, Italian plant response rating (0-100) [25, 29] | Ryegrass, Italian plant response rating (0 to 100 scale) [25, 30] | Foxtail, Green plant response rating (0-100) [26, 29] | Foxtail, Green plant response rating (0 to 100 scale) [26, 30] | Ragweed plant response rating (0-100) [27, 29] | Ragweed plant response rating (0 to 100 scale) [27, 30]
80: Blackgrass plant response rating (0 to 100 scale) [16, 30]
20: Barnyardgrass plant response rating (0-100) [7, 28] | Horseweed plant response rating (0 to 100 scale) [21, 30]
10: Soybean plant response rating (0-100) (soybean (Glycine max) [6]; [28])
90: Blackgrass plant response rating (0-100) [16, 29]
